# Experimental data reported in US20230017532A1 (Hoffmann-La Roche Inc., priority 2018, published 2023).
# Counter-ions that a name gives are not always drawn.
# Test system: Acinetobacter baumannii ATCC17978
# Assay: Antimicrobial susceptibility testing: 90% growth inhibitory concentration (IC90) determination, Iso-Sensitest broth, OD 600 nm
# Type: cell-based
# Conditions: Acinetobacter baumannii, ATCC17978, 16 h, 90% growth inhibitory concentration, Acinetobacter baumannii ATCC17978, Iso-Sensitest broth, OD 600 nm over 16 h; read-out: ATCC 17978 IC90
# Procedure, shortened: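 Growth of bacteria (~5×10^5 CFU/ml, Iso-Sensitest medium, 35±2 °C) was followed by OD at 600 nm at 20-min intervals over 16 h against a 10-point twofold compound series (e.g. 50–0.097 μM final). Concentration giving 90% inhibition in log phase was reported.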
row,Compound,IC90 [nM]
1,"Cc1cc(Nc2nccn3c(-c4ccc(OC(F)F)cc4)cnc23)ccc1C(=O)NCCOCCNC=O [Example 94, 4-[[3-[4-(difluoromethoxy)phenyl]imidazo [1,2-a]pyrazin-8-yl]amino]-N-[2-(2-formamidoethoxy)ethyl]-2-methylbenzamide]",280
2,"Cc1cc(Nc2nccn3c(-c4ccc(OC(F)F)cc4)cnc23)ccc1C(=O)NCCOCCN1CCCCC1 [Example 95, 4-[[3-[4-(difluoromethoxy)phenyl]imidazo [1,2-a]pyrazin-8-yl]amino]-2-methyl-N-[2-(2-piperidin-1-ylethoxy)ethyl] benzamide]",280
3,"Cc1cc(Nc2nccn3c(-c4ccc(OC(F)F)cc4)cnc23)ccc1C(=O)NCCOCCN(C)C [Example 96, 4-[[3-[4-(difluoromethoxy)phenyl]imidazo [1,2-a]pyrazin-8-yl]amino]-N-[2-[2-(dimethylamino)ethoxy]ethyl]-2-methyl-benzamide]",310
4,"Cc1cc(Nc2nccn3c(-c4ccc(OC(F)F)c(F)c4)cnc23)ccc1C(=O)NCCOCCN [Example 97, N-[2-(2-aminoethoxy)ethyl]-4-[[3-[4-(difluoro-methoxy)-3-fluorophenyl]imidazo[1,2-a]pyrazin-8-yl]amino]-2-methylbenzamide; hydrochloride]",370
5,CC(=O)NCCOCCNC(=O)c1ccc(Nc2nccn3c(-c4ccc(OC(F)F)cc4)cnc23)cc1C [Example 98],420
6,"Cc1cc(Nc2nccn3c(-c4ccc(Cl)cc4)cnc23)ccc1C(=O)NCCOCCN [Example 99, N-[2-(2-aminoethoxy)ethyl]-4-[[3-(4-chlorophenyl)imidazo[1,2-a]pyrazin-8-yl]amino]-2-methylbenzamide; hydrochloride]",440
7,"Cc1cc(Nc2nccn3c(-c4ccc(OCC#CCOCCN)cc4)cnc23)ccc1C(=O)NCCOCCN [Example 100, 4-[[3-[4-[4-(2-aminoethoxy)but-2-ynoxy]phenyl]imidazo[1,2-a]pyrazin-8-yl]amino]-N-[2-(2-aminoethoxy)ethyl]-2-methylbenzamide; formic acid]",440
8,"Cc1cc(Nc2nccn3c(-c4ccc(OC(F)F)cc4)cnc23)ccc1C(=O)NCCNCCN [Example 101, N-[2-(2-aminoethylamino)ethyl]-4-[[3-[4-(difluoromethoxy)phenyl]imidazo [1,2-a]pyrazin-8-yl]amino]-2-methylbenzamide; hydrochloride]",440
9,"Cc1cc(Nc2nccn3c(-c4ccc(OC(F)F)cc4)cnc23)ccc1C(=O)NCCOCCNS(C)(=O)=O [Example 102, 4-[[3-[4-(difluoromethoxy)phenyl]imidazo [1,2-a]pyrazin-8-yl]amino]-N-[2-[2-(methane-sulfonamido)ethoxy]ethyl]-2-methylbenzamide]",460
10,"COc1ccc(-c2cnc3c(Nc4ccc(C(=O)NCCNCCN)c(C)c4)nccn23)cc1 [Example 104, N-[2-(2-aminoethylamino)ethyl]-4-[[3-(4-methoxyphenyl)imidazo[1,2-a]pyrazin-8-yl]amino]-2-methylbenzamide; hydrochloride]",480
11,"COc1ccc(-c2cnc3c(Nc4ccc(C(=O)NCCOCC(=O)N5CCNCC5)c(C)c4)nccn23)cc1F [Example 105, 4-[[3-(3-fluoro-4-methoxyphenyl)imidazo[1,2-a]pyrazin-8-yl]amino]-2-methyl-N-[2-(2-oxo-2-piperazin-1-ylethoxy)ethyl] benzamide]",480
12,"COc1ccc(-c2cnc3c(Nc4ccc(C(=O)NCCOCCN5CCOCC5)c(C)c4)nccn23)cc1 [Example 106, 4-[[3-(4-methoxyphenyl)imidazo[1,2-a]pyrazin-8-yl]amino]-2-methyl-N-[2-(2-morpholin-4-ylethoxy)ethyl] benzamide]",480
13,"COc1ccc(-c2cnc3c(Nc4ccc(C(=O)NCCOCCn5ccnn5)c(C)c4)nccn23)cc1 [Example 107, 4-[[3-(4-methoxyphenyl)imidazo[1,2-a]pyrazin-8-yl]amino]-2-methyl-N-[2-[2-(triazol-1-yl)ethoxy]ethyl] benzamide]",500
14,"COc1ccc(-c2cnc3c(Nc4ccc(C(=O)N(C)CCOCCN5CC6(COC6)C5)c(C)c4)nccn23)cc1F [Example 108, 4-[[3-(3-fluoro-4-methoxyphenyl)imidazo[1,2-a]pyrazin-8-yl]amino]-N,2-dimethyl-N-[2-[2-(2-oxa-6-azaspiro [3.3]heptan-6-yl)ethoxy]ethyl] benzamide]",520
15,"COc1ccc(-c2cnc3c(Nc4ccc(C(=O)NCCOCCNS(C)(=O)=O)c(C)c4)nccn23)cc1 [Example 109, N-[2-[2-(methane-sulfonamido)ethoxy]ethyl]-4-[[3-(4-methoxyphenyl)imidazo[1,2-a]pyrazin-8-yl]amino]-2-methylbenzamide]",530
16,"COc1ccc(-c2cnc3c(Nc4ccc(C(=O)N(C)CCOCCN5CCS(=O)(=O)CC5)c(C)c4)nccn23)cc1F [Example 110, N-[2-[2-(1,1-dioxo-1,4-thiazinan-4-yl)ethoxy]ethyl]-4-[[3-(3-fluoro-4-methoxyphenyl)imidazo[1,2-a]pyrazin-8-yl]amino]-N,2-dimethyl-benzamide]",530

row,Compound,IC90 [nM]
1,"COc1ccc(-c2cnc3c(Nc4ccc(C(=O)NCCOCCN5CCOC(CN)C5)c(C)c4)nccn23)cc1F (stereo not shown) [Example 111, N-[2-[2-[2-(aminomethyl)morpholin-4-yl]ethoxy]ethyl]-4-[[3-(3-fluoro-4-methoxyphenyl)imidazo[1,2-a]pyrazin-8-yl]amino]-2-methylbenzamide; hydrochloride]",560
2,"COc1ccc(-c2cnc3c(Nc4ccc(C(=O)NCCOCC(=O)N5CCNCC5)c(C)c4)nccn23)cc1 [Example 112, 4-[[3-(4-methoxyphenyl)imidazo[1,2-a]pyrazin-8-yl]amino]-2-methyl-N-[2-(2-oxo-2-piperazin-1-ylethoxy)ethyl] benzamide]",570
3,"COc1ccc(-c2cnc3c(Nc4ccc(C(=O)NCCOCCN5CCNCC5)c(C)c4)nccn23)cc1F [Example 113, 4-[[3-(3-fluoro-4-methoxyphenyl)imidazo[1,2-a]pyrazin-8-yl]amino]-2-methyl-N-[2-(2-piperazin-1-ylethoxy)ethyl] benzamide; hydrochloride]",580
4,"Cc1cc(Nc2nccn3c(-c4ccc(OC(F)F)cc4)cnc23)ccc1C(=O)NCCOCCN1CC2(COC2)C1 [Example 114, 4-[[3-[4-(difluoromethoxy)phenyl]imidazo [1,2-a]pyrazin-8-yl]amino]-2-methyl-N-[2-[2-(2-oxa-6-azaspiro [3.3]heptan-6-yl)ethoxy]ethyl] benzamide]",580
5,COc1ccc(-c2cnc3c(Nc4ccc(C(=O)NCCOCC(=O)N5CCN(C)CC5)c(C)c4)nccn23)cc1 [Example 115],590
6,"COc1ccc(-c2cnc3c(Nc4ccc(C(=O)NCCOCCO)c(C)c4)nccn23)cc1 [Example 116, N-[2-(2-hydroxyethoxy)ethyl]-4-[[3-(4-methoxyphenyl)imidazo[1,2-a]pyrazin-8-yl]amino]-2-methylbenzamide]",590
7,"Cc1cc(Nc2nccn3c(-c4ccc(Cl)cc4)cnc23)ccc1C(=O)NCCNCCN [Example 117, N-[2-(2-aminoethylamino)ethyl]-4-[[3-(4-chlorophenyl)imidazo[1,2-a]pyrazin-8-yl]amino]-2-methylbenzamide; hydrochloride]",590
8,"COc1ccc(-c2cnc3c(Nc4ccc(C(=O)NCCCOCC(=O)N5CCNCC5)c(C)c4)nccn23)cc1F [Example 118, 4-[[3-(3-fluoro-4-methoxyphenyl)imidazo[1,2-a]pyrazin-8-yl]amino]-2-methyl-N-[3-(2-oxo-2-piperazin-1-ylethoxy)propyl] benzamide; hydrochloride]",600
9,"Cc1cc(Nc2nccn3c(-c4ccc(OC(F)F)cc4)cnc23)ccc1C(=O)NCCOCCNC(=O)CO [Example 119, 4-[[3-[4-(difluoromethoxy)phenyl]imidazo [1,2-a]pyrazin-8-yl]amino]-N-[2-[2-[(2-hydroxyacetyl)amino]ethoxy]ethyl]-2-methylbenzamide]",610
10,"COc1ccc(-c2cnc3c(Nc4ccc(C(=O)NCCOCCNC(C)=O)c(C)c4)nccn23)cc1 [Example 120, N-[2-(2-acetamidoethoxy)ethyl]-4-[[3-(4-methoxyphenyl)imidazo[1,2-a]pyrazin-8-yl]amino]-2-methylbenzamide]",620
11,"COc1ccc(-c2cnc3c(Nc4ccc(C(=O)NCCOCCN5CCN(C)CC5)c(C)c4)nccn23)cc1 [Example 121, 4-[[3-(4-methoxyphenyl)imidazo[1,2-a]pyrazin-8-yl]amino]-2-methyl-N-[2-[2-(4-methylpiperazin-1-yl)ethoxy]ethyl] benzamide]",620
12,"Cc1cc(Nc2nccn3c(-c4ccc(Cl)c(F)c4F)cnc23)ccc1C(=O)NCCNCCN [Example 122, N-[2-(2-aminoethylamino)ethyl]-4-[[3-(4-chloro-2,3-difluorophenyl)imidazo[1,2-a]pyrazin-8-yl]amino]-2-methylbenzamide; hydrochloride]",620
13,"Cc1cc(Nc2nccn3c(-c4ccc(OCC#CCN)cc4)cnc23)ccc1C(=O)NCCOCCN [Example 123, 4-[[3-[4-(4-aminobut-2-ynoxy)phenyl]imidazo[1,2-a]pyrazin-8-yl]amino]-N-[2-(2-aminoethoxy)ethyl]-2-methylbenzamide; formic acid]",630
14,"COc1ccc(-c2cnc3c(Nc4ccc(C(=O)NCCCOCC(=O)N5CCOC(CN)C5)c(C)c4)nccn23)cc1F (stereo not shown) [Example 124, N-[3-[2-[2-(aminomethyl)morpholin-4-yl]-2-oxoethoxy]propyl]-4-[[3-(3-fluoro-4-methoxyphenyl)imidazo[1,2-a]pyrazin-8-yl]amino]-2-methylbenzamide; hydrochloride]",640
15,"Cc1cc(Nc2nccn3c(-c4ccc(OC(F)F)cc4)cnc23)ccc1C(=O)N(C)CCOCCN1CCNCC1 [Example 126, 4-[[3-[4-(difluoromethoxy)phenyl]imidazo [1,2-a]pyrazin-8-yl]amino]-N,2-dimethyl-N-[2-(2-piperazin-1-ylethoxy)ethyl] benzamide]",670
